Source: patent US20230039711A1, “AHR INHIBITORS AND USES THEREOF” (Ikena Oncology, Inc., priority 2020, published 2023)

Key:
[1] = tested on: other receptors, transporters, and kinases; assay: Selectivity for AHR over other receptors, transporters, and kinases
human T cell = assay: Human T cell assays; type: cell-based
AHR = molecular target: T1, AHR (Homo sapiens, UniProt P35869); assay: AHR translocation from cytoplasm to nucleus in the presence of a ligand, and downstream signaling in in vivo tumor models
T1 construct: host or cells: in vivo tumor models (not specified)
T1 sequence (P35869 11-848): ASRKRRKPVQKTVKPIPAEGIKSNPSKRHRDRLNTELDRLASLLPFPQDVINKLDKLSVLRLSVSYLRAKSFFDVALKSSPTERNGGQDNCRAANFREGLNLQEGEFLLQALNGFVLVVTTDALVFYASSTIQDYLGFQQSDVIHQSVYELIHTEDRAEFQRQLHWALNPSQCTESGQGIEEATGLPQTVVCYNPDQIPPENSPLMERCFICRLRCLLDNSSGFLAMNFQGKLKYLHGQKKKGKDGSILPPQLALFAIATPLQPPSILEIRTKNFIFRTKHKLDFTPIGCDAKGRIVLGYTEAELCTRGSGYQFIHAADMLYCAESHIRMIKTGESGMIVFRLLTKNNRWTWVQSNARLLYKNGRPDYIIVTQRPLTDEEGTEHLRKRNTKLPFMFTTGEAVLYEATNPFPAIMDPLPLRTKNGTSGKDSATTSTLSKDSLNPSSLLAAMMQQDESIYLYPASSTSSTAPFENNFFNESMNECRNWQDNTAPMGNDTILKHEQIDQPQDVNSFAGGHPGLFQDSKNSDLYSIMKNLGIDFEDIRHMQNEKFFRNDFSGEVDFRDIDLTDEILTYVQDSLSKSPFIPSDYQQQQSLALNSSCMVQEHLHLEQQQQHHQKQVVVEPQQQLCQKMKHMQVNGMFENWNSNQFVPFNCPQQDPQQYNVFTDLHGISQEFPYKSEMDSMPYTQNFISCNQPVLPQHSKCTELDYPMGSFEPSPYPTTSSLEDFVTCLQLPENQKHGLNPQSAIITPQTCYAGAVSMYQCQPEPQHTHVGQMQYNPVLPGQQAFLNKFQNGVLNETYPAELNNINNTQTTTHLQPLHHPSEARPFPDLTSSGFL

[2] = Nonclinical safety, single-dose and repeated-dose toxicological studies in rodent and non-rodent species; type: in vivo; settings: species not specified for these findings
[3] = Nonclinical safety studies incl. 28-day GLP study in rat; type: in vivo; settings: rats
[4] = Nonclinical safety studies incl. 28-day GLP study in monkeys; type: in vivo, monkey
[5] = Monotherapy dosing in human patients, safety; type: in vivo; settings: 200 mg, 400 mg, 800 mg, and 1200 mg once daily (QD)

selectivity for AHR over other receptors, transporters, and kinases [1]: highly selective for AHR | CYP1A1 gene expression (human T cell): inhibits | AHR translocating from the cytoplasm to the nucleus and downstream signaling (AHR): effectively blocks
Compound: CC(C)c1cnn2c(N[C@@H]3CCc4[nH]c5ccccc5c4C3)nc(-c3cncc(F)c3)nc12 [Compound A, (R)-N-(2-(5-fluoropyridin-3-yl)-8-isopropylpyrazolo[1,5-a][1,3,5]triazin-4-yl)-2,3,4,9-tetrahydro-1H-carbazol-3-amine]
T cell state (human T cell): induces an activated T cell state | interleukin (IL)-22 gene expression (human T cell): inhibits | pro-inflammatory cytokine IL-2 (human T cell): increase | pro-inflammatory cytokine IL-9 (human T cell): increase | noteworthy findings of potential relevance to humans (general) [2]: emesis, loose stool, dehydration, body weight loss | stomach findings [3]: nonglandular stomach ulceration and edema | testicular findings ([3]; not resolved after 2 weeks of dosing cessation): seminiferous tubule degeneration and debris in the epididymis lumen | thymus weights and cortical lymphocytes ([4]; monkey): decreased | QTc prolongation ([4]; monkeys): up to 11% | serious adverse events (SAEs) [5]: no serious adverse events
